We go through 22 molecules from patent publication US20250122223A1, “HETEROCYCLIC COMPOUNDS AS UBIQUITIN SPECIFIC PROTEASE 7 INHIBITORS” (ALMAC DISCOVERY LIMITED, priority 2022, published 2025).

This test concerns the target USP7 (Homo sapiens (Human), UniProt Q93009). The experiment in a line: USP7 fluorescence polarisation (FP) assay with ubiquitin-Lys-TAMRA substrate. The note with it: biochemical inhibition. It is filed as biochemical. How it is done:
USP7 activity was monitored in a fluorescence polarisation (FP) homogeneous assay using the isopeptide ubiquitin-Lys-TAMRA substrate (U-558, Boston Biochem). Full-length USP7 was purchased from Boston Biochem (His6-USP7FL, E-519). Unless otherwise stated, all other reagents were purchased from Sigma-Aldrich. Enzymatic reactions were conducted in black flat-bottom low volume polystyrene 384-well plates (Grenier) and 15 μL total volume. USP7 (2.5 nM, 5 μL) was incubated in assay buffer (50 mM HEPES (pH 7.2), 150 mM NaCl, 5 mM DTT, 0.05% BSA (w/v), 0.05% CHAPS) in the presence or absence of inhibitor (5 μL). Inhibitors were stored as 10 mM DMSO stocks in an inert environment (low humidity, dark, low oxygen, room temperature) using a Storage Pod System and serial dilutions were prepared in buffer just prior to the assay (from 200 to 0.003 μM, 11 dp curve). Following incubation at room temperature for 30 min, the enzymatic reactions were initiated by dispensing the Ub substrate (50 nM, 5 μL). FP was measured every 5 min over a period of 1.5 h (within the linear range of the assay) using a Pherastar FSX (BMG Labtech) exciting at 530 nm and measuring the amount of parallel and perpendicular light at 575 nm. The FP signal was subsequently normalised to the control without compound present. Data were plotted and fitted, and the concentrations resulting in 50% inhibition (IC50) were calculated using the non-linear regression curve fitting model using GraphPad Prism.

[1] abbreviates: read-out: USP7 IC50 activity (Table 3a, classes).
Setting [2] is: unit not given in Table 3b (Table 1 and key of Table 3a use μM), read-out: USP7 IC50 activity (Table 3b).

Like-named read-outs stand apart in the source and are kept apart here.

USP7, sequence (Q93009 whole entry): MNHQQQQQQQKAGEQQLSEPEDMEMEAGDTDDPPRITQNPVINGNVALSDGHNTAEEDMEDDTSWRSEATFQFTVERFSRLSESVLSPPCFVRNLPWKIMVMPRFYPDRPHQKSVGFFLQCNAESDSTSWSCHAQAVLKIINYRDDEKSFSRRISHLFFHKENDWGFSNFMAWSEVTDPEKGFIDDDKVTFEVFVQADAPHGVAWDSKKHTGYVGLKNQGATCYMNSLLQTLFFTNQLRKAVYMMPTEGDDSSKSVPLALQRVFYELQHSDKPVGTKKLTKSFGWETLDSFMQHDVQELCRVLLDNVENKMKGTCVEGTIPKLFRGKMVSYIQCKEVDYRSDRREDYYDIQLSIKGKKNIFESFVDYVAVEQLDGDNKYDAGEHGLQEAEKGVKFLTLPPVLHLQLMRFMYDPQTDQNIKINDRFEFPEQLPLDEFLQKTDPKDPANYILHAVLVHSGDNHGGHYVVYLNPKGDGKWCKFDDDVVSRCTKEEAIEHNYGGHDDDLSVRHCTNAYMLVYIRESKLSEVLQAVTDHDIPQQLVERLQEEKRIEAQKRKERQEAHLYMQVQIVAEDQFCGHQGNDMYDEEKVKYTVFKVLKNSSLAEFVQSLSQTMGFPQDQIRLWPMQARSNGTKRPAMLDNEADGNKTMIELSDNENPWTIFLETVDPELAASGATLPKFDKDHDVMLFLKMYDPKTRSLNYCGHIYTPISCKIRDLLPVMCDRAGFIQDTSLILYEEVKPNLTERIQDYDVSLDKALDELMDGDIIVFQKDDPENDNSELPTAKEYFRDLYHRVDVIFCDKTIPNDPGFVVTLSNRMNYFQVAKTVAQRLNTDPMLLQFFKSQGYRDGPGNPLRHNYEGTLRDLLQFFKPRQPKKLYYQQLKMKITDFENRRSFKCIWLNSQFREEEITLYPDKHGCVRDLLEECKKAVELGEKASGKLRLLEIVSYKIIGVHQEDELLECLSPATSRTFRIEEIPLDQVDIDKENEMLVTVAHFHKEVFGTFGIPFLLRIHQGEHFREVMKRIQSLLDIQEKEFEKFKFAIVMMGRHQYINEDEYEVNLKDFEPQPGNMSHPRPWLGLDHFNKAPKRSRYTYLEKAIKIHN

With `Cc1cc(-n2c(Cl)cc3c(=O)n(CC4(O)CCN(C(=O)c5ccc(C(F)F)cc5)CC4)cnc32)ccc1[C@H]1CO[C@H](C)CN1` [Example 92, 6-Chloro-3-((1-(4-(difluoromethyl)benzoyl)-4-hydroxypiperidin-4-yl)methyl)-7-(3-methyl-4-((3S,6R)-6-methylmorpholin-3-yl)phenyl)-3,7-dihydro-4H-pyrrolo[2,3-d]pyrimidin-4-one], the half-inhibitory concentration (IC50) is, setting by setting: under setting [1], 0.1 to 0.25 µM; under setting [2], 0.111 µM.
Taken in the same sequence, the figures for `Cc1cc(-n2c(Cl)cc3c(=O)n(CC4(O)CCN(C(=O)c5ccc(C6(C)CC6)cc5)CC4)cnc32)ccc1[C@H]1CO[C@H](C)CN1` [Example 94, 6-Chloro-3-((4-hydroxy-1-(4-(1-methylcyclopropyl)benzoyl)piperidin-4-yl)methyl)-7-(3-methyl-4-((3S,6R)-6-methylmorpholin-3-yl)phenyl)-3,7-dihydro-4H-pyrrolo[2,3-d]pyrimidin-4-one] were 0.1 to 0.25 µM and 0.193 µM.
Regarding `CN1CCOCC1c1ccc(-n2c(Cl)cc3c(=O)n(CC4(O)CCN(C(=O)C5(C)CC5)CC4)cnc32)cc1` (centres unmarked) [Example 75, 6-Chloro-3-((4-hydroxy-1-(1-methylcyclopropane-1-carbonyl)piperidin-4-yl)methyl)-7-(4-(4-methylmorpholin-3-yl)phenyl)-3,7-dihydro-4H-pyrrolo[2,3-d]pyrimidin-4-one], the 50% inhibitory concentration (IC50) runs as follows: under setting [1], 0.25 to 2 µM; under setting [2], 2.09 µM.
In the same order, the values of `CC1(C(=O)N2CCC(O)(Cn3cnc4c(cc(Cl)n4-c4ccc(C5COCCN5)c(F)c4)c3=O)CC2)CC1` (centres unmarked) [Example 72, 6-Chloro-7-(3-fluoro-4-(morpholin-3-yl)phenyl)-3-((4-hydroxy-1-(1-methylcyclopropane-1-carbonyl)piperidin-4-yl)methyl)-3,7-dihydro-4H-pyrrolo[2,3-d]pyrimidin-4-one] are 0.1 to 0.25 µM and 0.211 µM.
In the same order, the values of `O=C(N1CCC(O)(Cn2cnc3c(cc(Cl)n3-c3ccc([C@@H]4COCCN4)cc3)c2=O)CC1)C1(C2CC2)CC1` (single isomer, unassigned) [Example 80] are less than 0.1 µM and 0.041 µM.
In the same order, the values of `CC[C@H]1CN[C@H](c2ccc(-n3c(Cl)cc4c(=O)n(CC5(O)CCN(C(=O)[C@]6(C)C[C@H]6C)CC5)cnc43)cc2)CO1` [Example 96, 6-Chloro-3-((1-((1R,2R)-1,2-dimethylcyclopropane-1-carbonyl)-4-hydroxypiperidin-4-yl)methyl)-7-(4-((3R,6S)-6-ethylmorpholin-3-yl)phenyl)-3,7-dihydro-4H-pyrrolo[2,3-d]pyrimidin-4-one] are less than 0.1 µM and 0.037 µM.
As to `Cc1cc(Cl)ccc1C(=O)N1CCC(O)(Cn2cnc3c(cc(Cl)n3-c3ccc([C@@H]4CO[C@@H](C)CN4)cc3)c2=O)CC1` [Example 90, 6-Chloro-3-((1-(4-chloro-2-methylbenzoyl)-4-hydroxypiperidin-4-yl)methyl)-7-(4-((3R,6S)-6-methylmorpholin-3-yl)phenyl)-3,7-dihydro-4H-pyrrolo[2,3-d]pyrimidin-4-one], the IC50 is, setting by setting: under setting [1], 0.25 to 2 µM; under setting [2], 0.293 µM.
For the molecule `O=C(c1ccc(Cl)cc1)N1CCC(O)(Cn2cnc3c(cc(Cl)n3-c3ccc([C@H]4CO[C@H](C5CC5)CN4)cc3)c2=O)CC1` (single isomer, unassigned) [Example 61], the IC50 reads like this: under setting [1], 0.1 to 0.25 µM; under setting [2], 0.128 µM.
Taken in the same sequence, the figures for `C[C@H]1CN[C@@H](c2ccc(-n3c(Cl)cc4c(=O)n(CC5(O)CCN(C(=O)c6ccc(Cl)cc6)CC5)cnc43)cc2)CO1` (single isomer, unassigned) [Example 68] were 0.25 to 2 µM and 0.702 µM.
In the same order, the values of `Cc1cc(-n2c(Cl)cc3c(=O)n(CC4(O)CCN(C(=O)c5ccc(Cl)cc5F)CC4)cnc32)ccc1[C@H]1CO[C@H](C)CN1` [Example 50, 6-Chloro-3-((1-(4-chloro-2-fluorobenzoyl)-4-hydroxypiperidin-4-yl)methyl)-7-(3-methyl-4-((3S,6R)-6-methylmorpholin-3-yl)phenyl)-3,7-dihydro-4H-pyrrolo[2,3-d]pyrimidin-4-one] are 0.1 to 0.25 µM and 0.164 µM.
For the molecule `CC1(C)CN[C@H](c2ccc(-n3c(Cl)cc4c(=O)n(CC5(O)CCN(C(=O)C6(C7CC7)CC6)CC5)cnc43)cc2)CO1` (single isomer, unassigned) [Example 41], the 50% inhibitory concentration (IC50) was less than 0.1 µM under setting [1] and 0.079 µM under setting [2].
Taken in the same sequence, the figures for `C[C@H]1CN[C@H](c2ccc(-n3c(Cl)cc4c(=O)n(CC5(O)CCN(C(=O)c6ccc(C(F)F)cc6)CC5)cnc43)cc2)CO1` [Example 91, 6-Chloro-3-((1-(4-(difluoromethyl)benzoyl)-4-hydroxypiperidin-4-yl)methyl)-7-(4-((3R,6S)-6-methylmorpholin-3-yl)phenyl)-3,7-dihydro-4H-pyrrolo[2,3-d]pyrimidin-4-one] were 0.1 to 0.25 µM and 0.167 µM.
In the same order, the values of `Cc1cc(-n2c(Cl)cc3c(=O)n(CC4(O)CCN(C(=O)C5(C)CC5)CC4)cnc32)ccc1[C@@H]1COCCN1` (single isomer, unassigned) [Example 74] are 0.1 to 0.25 µM and 0.112 µM.
Regarding `C[C@H]1CN[C@H](c2ccc(-n3c(Cl)cc4c(=O)n(CC5(O)CCN(C(=O)C6(C)CC6)CC5)cnc43)cc2)CO1` (racemic) [Example 1, rac-6-Chloro-3-((4-hydroxy-1-(1-methylcyclopropane-1-carbonyl)piperidin-4-yl)methyl)-7-(4-((3R,6S)-6-methylmorpholin-3-yl)phenyl)-3,7-dihydro-4H-pyrrolo[2,3-d]pyrimidin-4-one], the IC50 under setting [1] is less than 0.1 µM and the IC50 under setting [2] was 0.03 µM.
On to `Cc1cc(-n2c(Cl)cc3c(=O)n(CC4(O)CCN(C(=O)c5ccc(Cl)cc5)CC4)cnc32)ccc1[C@H]1CO[C@H](C)CN1` [Example 12, 6-Chloro-3-((1-(4-chlorobenzoyl)-4-hydroxypiperidin-4-yl)methyl)-7-(3-methyl-4-((3S,6R)-6-methylmorpholin-3-yl)phenyl)-3,7-dihydro-4H-pyrrolo[2,3-d]pyrimidin-4-one], for which the IC50 under setting [1] lay in the range of 0.1 to 0.25 µM and the IC50 under setting [2] is 0.13 µM.
In the case of `Cc1ccc(C(=O)N2CCC(O)(Cn3cnc4c(cc(Cl)n4-c4ccc([C@H]5CO[C@H](C)CN5)c(C)c4)c3=O)CC2)c(C)c1` [Example 58, 6-Chloro-3-((1-(2,4-dimethylbenzoyl)-4-hydroxypiperidin-4-yl)methyl)-7-(3-methyl-4-((3S,6R)-6-methylmorpholin-3-yl)phenyl)-3,7-dihydro-4H-pyrrolo[2,3-d]pyrimidin-4-one], the IC50 is, setting by setting: under setting [1], 0.25 to 2 µM; under setting [2], 0.414 µM.
In the same order, the values of `O=C(c1ccc(Cl)cc1)N1CCC(O)(Cn2cnc3c(cc(Cl)n3-c3ccc([C@H]4COCCN4)cc3)c2=O)CC1` (single isomer, unassigned) [Example 76] are less than 0.1 µM and 0.038 µM.
In the case of `C[C@@H]1CN[C@@H](c2ccc(-n3c(Cl)cc4c(=O)n(CC5(O)CCN(C(=O)c6ccc(Cl)cc6)CC5)cnc43)cc2)CO1` [Example 11, 6-Chloro-3-((1-(4-chlorobenzoyl)-4-hydroxypiperidin-4-yl)methyl)-7-(4-((3S,6R)-6-methylmorpholin-3-yl)phenyl)-3,7-dihydro-4H-pyrrolo[2,3-d]pyrimidin-4-one], the IC50 is less than 0.1 µM under setting [1] and 0.08 µM under setting [2].
Taken in the same sequence, the figures for `C[C@H]1CN[C@H](c2ccc(-n3c(Cl)cc4c(=O)n(CC5(O)CCN(C(=O)C6(C7CC7)CC6)CC5)cnc43)cc2)CO1` [Example 42, 3-((1-([1,1′-Bi(cyclopropane)]-1-carbonyl)-4-hydroxypiperidin-4-yl)methyl)-6-chloro-7-(4-((3R,6S)-6-methylmorpholin-3-yl)phenyl)-3,7-dihydro-4H-pyrrolo[2,3-d]pyrimidin-4-one] were less than 0.1 µM and 0.091 µM.
In the same order, the values of `CC1(C(=O)N2CCC(O)(Cn3cnc4c(cc(Cl)n4-c4ccc([C@@H]5CO[C@@H](C6CC6)CN5)cc4)c3=O)CC2)CC1` [Example 100, 6-Chloro-7-(4-((3R,6S)-6-cyclopropylmorpholin-3-yl)phenyl)-3-((4-hydroxy-1-(1-methylcyclopropane-1-carbonyl)piperidin-4-yl)methyl)-3,7-dihydro-4H-pyrrolo[2,3-d]pyrimidin-4-one] are less than 0.1 µM and 0.079 µM.
Taken in the same sequence, the figures for `CC1(C)CN[C@@H](c2ccc(-n3c(Cl)cc4c(=O)n(CC5(O)CCN(C(=O)c6ccc(F)cc6)CC5)cnc43)cc2)CO1` (single isomer, unassigned) [Example 28] were 0.1 to 0.25 µM and 0.218 µM.
On to `Cc1cc(-n2c(Cl)cc3c(=O)n(CC4(O)CCN(C(=O)c5ccc(F)cc5)CC4)cnc32)ccc1[C@H]1CO[C@H](C)CN1` [Example 47, 6-Chloro-3-((1-(4-fluorobenzoyl)-4-hydroxypiperidin-4-yl)methyl)-7-(3-methyl-4-((3S,6R)-6-methylmorpholin-3-yl)phenyl)-3,7-dihydro-4H-pyrrolo[2,3-d]pyrimidin-4-one], for which the IC50 runs as follows: under setting [1], less than 0.1 µM; under setting [2], 0.091 µM.
